Test results reported in ChEMBL document CHEMBL1781978, “A highly conjugated dihydroxylated C28 steroid from a myxobacterium” (J Nat Prod, 2011).

System: SW480
Assay: Cytotoxicity against human SW480 cells by MTT assay
Format: functional, cell-based

CC(C)[C@@H](C)/C=C/[C@@H](C)[C@H]1CCC2=C3C=CC4=CC(=O)CC[C@]4(C)[C@@]3(O)[C@H](O)C[C@@]21C
IC50: 10 µM
